Results on 15 compounds are retold here after US11571423B2, “Small molecule modulators of human sting” (Curadev Pharma Limited, priority 2017, dated 2023).

Structures can show the parent of a compound that is named as a salt.

Assay [1] addresses hSTING(R232) (Homo sapiens, UniProt Q86WV6, H232R). Put plainly: Luciferase reporter assay in HEK293T-hSTING-Luciferase cells, R232 (wild type) human STING. It is filed as cell-based. The conditions noted are these: 20 hr stimulation, read-out: R232 human activity (EC50 range). The essentials: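 After 20 hr compound stimulation of 5×10^5 cells, secreted luciferase in the supernatant was measured by luminescence; values are fold-induction over baseline and EC50. The line is a clonal HEK293T stably carrying a STING plasmid (pUNO-1) and a luciferase reporter under five tandem ISREs fused to an ISG54 promoter.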
Background: A reporter such as luciferase makes a cellular process visible.

Assay [2] has as its target hSTING(H232) (Homo sapiens, UniProt Q86WV6). Put plainly: Luciferase reporter assay in HEK293T-hSTING-Luciferase cells, H232/REF polymorph. The conditions noted are these: H232/REF polymorph of human STING, EC50 range class. Format: cell-based. An excerpt: (§1) Stable Cell Line Generation • a) Stable STING expressing cells—Stable HEK293T STING-expressing cell lines were generated using plasmids purchased from Invivogen, CA, USA, that contain STING cDNA cloned into the pUNO-1 vector under hEF1-HTLV promoter and containing the Blasticidin selection cassette. The plasmids hSTING(R232), hSTING(H232), hSTING(HAQ) were directly procured from Invivogen while hSTING (AQ) and hSTING (Q) were derived from hSTING(HAQ) and hSTING (R232) plasmids respectively by using a PCR based site directed mutagenesis method. These vectors were individually transfected into HEK293T cells using Lipofectamine (Invitrogen) and transfected cells were selected under Blasticidin selection. These transfected cells were further subjected to clonal selection using the limiting dilution method to obtain clonally pure populations of HEK cells transfected with each of the above mentioned human STING variants. Only those clones were selected in which ligand independent activation of STING was minimal. • b) Stable Luciferase reporter gene expressing cells—Stable HEK293T Luciferase reporter gene expressing cell lines were generated using pCDNA4 plasmids under an IRF-inducible promoter. This promoter is comprised of five tandem interferon-stimulated response elements (ISRE) fused to an ISG54 minimal promoter. This vector was transfected into HEK293T cells using Lipofectamine (Invitrogen) and transfected cells were selected under Zeocin selection. These transfected cells were further subjected to clonal selection using the limiting dilution method to obtain clonally pure populations of HEK cells transfected the Luciferase reporter construct. Only those clones were selected in which ligand independent induction of luciferase was minimal.
(§2) 5×10^5 clonally selected HEK293T-hSTING-Luciferase cells were seeded in 384-well plates in growth medium and stimulated with novel compounds. After 20 hr of stimulation supernatant were removed and secretary reporter gene activity were measured using the Quanti-Luc detection system (Invivogen) on a Spectramax i3X luminometer.
(§3) In the tables below, EC50 value ranges for exemplary compounds are given.
(§4) Single nucleotide polymorphisms of human STING have been described, which can affect the functional potency of compounds that modulate the activity of the STING protein (see Yi et. al., PLoS One, October 2013, 8(10), e77846). The 5 major polymorphisms of human STING are shown in FIG. 1, with their prevalence in human populations indicated.
(§5) The tables below show the potency of selected compounds of the invention against the most common polymorphisms.

Assay [3] deals with hSTING(HAQ) (Homo sapiens, UniProt Q86WV6, G230A/H232R/R293Q/R71H). Put plainly: Luciferase reporter assay in HEK293T-hSTING-Luciferase cells, HAQ polymorph. It is filed as cell-based. As to conditions: HAQ polymorph of human STING, EC50 range class.
Text: as §1, §2, §3, §4, §5

Assay [4] relates to IRF pathway. Put plainly: Reporter gene expression assay in THP1-Dual cells, IRF axis (secreted Lucia luciferase). Format: cell-based, human. The conditions noted are these: Homo sapiens, 20 hr stimulation, EC50 range class, read-out: THP-IRF activity. The method, then: (§6) THP1-Dual™ cells (Invivogen) were derived from the human THP-1 monocyte cell line by stable integration of two inducible reporter constructs. As a result, THP1-Dual™ cells allow the simultaneous study of the NF-κB pathway, by monitoring the activity of secreted SEAP, and the IRF pathway, by assessing the activity of a secreted luciferase (Lucia). 5×10^5 THP1-Dual™ cells were seeded in 384-well plates in growth medium and stimulated with novel compounds. After 20 hr of stimulation supernatants were removed and reporter proteins were readily measured in the cell culture supernatant using QUANTI-Blue™ (Invivogen), a SEAP detection reagent, and QUANTI-Luc™ (Invivogen), a luciferase detection reagent on a Spectramax i3X luminometer.
(§7) EC50 value ranges for exemplary compounds tested in the above assay are given.

The test system of assay [5] is NF-κB pathway. Nature of the assay: Reporter gene expression assay in THP1-Dual cells, NFkB axis (secreted SEAP). Format: cell-based, human. The conditions noted are these: Homo sapiens, 20 hr stimulation, EC50 range class, read-out: THP-NFκB activity. The method, then:
as §6, §7

hSTING(H232), sequence (Q86WV6 whole entry): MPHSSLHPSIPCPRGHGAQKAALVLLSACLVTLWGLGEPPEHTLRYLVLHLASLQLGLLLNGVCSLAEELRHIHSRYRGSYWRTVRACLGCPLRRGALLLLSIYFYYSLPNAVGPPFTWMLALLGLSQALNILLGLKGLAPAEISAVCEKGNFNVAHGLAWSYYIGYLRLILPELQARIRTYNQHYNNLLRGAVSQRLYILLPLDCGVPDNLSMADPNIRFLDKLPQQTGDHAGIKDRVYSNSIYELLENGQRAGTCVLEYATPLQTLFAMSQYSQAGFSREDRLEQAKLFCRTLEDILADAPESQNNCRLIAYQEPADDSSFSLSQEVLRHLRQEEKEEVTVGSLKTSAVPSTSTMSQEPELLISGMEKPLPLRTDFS
hSTING(R232), sequence (Q86WV6 whole entry H232R, the tested form may be a part): as the sequence (Q86WV6 whole entry) above, with H232R counted along it
hSTING(HAQ), sequence (Q86WV6 whole entry R71H/G230A/H232R/R293Q): as the sequence (Q86WV6 whole entry) above, with R71H, G230A, H232R, R293Q counted along it

As to `CC1c2ccc(C(=O)NCc3c(F)cc(F)cc3F)cc2N(Cc2c(F)cccc2OS(C)(=O)=O)C(=O)N1C` (stereo not drawn) [Example 204, 2-((3,4-dimethyl-2-oxo-7-((2,4,6-trifluorobenzyl)carbamoyl)-3,4-dihydroquinazolin-1(2H)-yl)methyl)-3-fluorophenyl methanesulfonate], the EC50 is under 1 µM in assay [1]; 1 to 10 µM in assay [2]; 1 to 10 µM in assay [3]; over 10 µM in assay [4]; over 10 µM in assay [5].

As to `Cc1cc(CN2C(=O)N(C)C(C)c3ccc(C(=O)NCc4c(F)cc(F)cc4F)cc32)ccn1` (stereo not drawn) [Example 208, 3,4-dimethyl-1-((2-methylpyridin-4-yl)methyl)-2-oxo-N-(2,4,6-trifluorobenzyl)-1,2,3,4-tetrahydroquinazoline-7-carboxamide], the EC50 in assay [1] is under 1 µM; in assay [2] it was under 1 µM; in assay [3] it was under 1 µM; in assay [4], 1 to 10 µM; in assay [5] it was 1 to 10 µM.

On to `Cc1ccc(CNC(=O)c2ccc3c(c2)N(Cc2c(F)cccc2Cl)C(=O)N(C)C3C)o1` (stereo not drawn) [Example 212, 1-(2-chloro-6-fluorobenzyl)-3,4-dimethyl-N-((5-methylfuran-2-yl)methyl)-2-oxo-1,2,3,4-tetrahydroquinazoline-7-carboxamide], for which the EC50 was under 1 µM in assay [1]; 1 to 10 µM in assay [2]; 1 to 10 µM in assay [3]; over 10 µM in assay [4]; over 10 µM in assay [5].

On to `CC1c2ccc(C(=O)NCc3cc4ccccc4o3)cc2N(Cc2c(F)cccc2Cl)C(=O)N1C` (stereo not drawn) [Example 213, N-(benzofuran-2-ylmethyl)-1-(2-chloro-6-fluorobenzyl)-3,4-dimethyl-2-oxo-1,2,3,4-tetrahydroquinazoline-7-carboxamide], for which the EC50 in assay [1] was under 1 µM; in assay [2] it was 1 to 10 µM; in assay [3], 1 to 10 µM; in assay [4], 1 to 10 µM; in assay [5], 1 to 10 µM.

For `C[C@H]1c2ccc(C(=O)NCc3c(F)cc(F)cc3F)cc2N(Cc2ncccc2F)C(=O)N1C` [Example 227, (S)-1-((3-fluoropyridin-2-yl)methyl)-3,4-dimethyl-2-oxo-N-(2,4,6-trifluorobenzyl)-1,2,3,4-tetrahydroquinazoline-7-carboxamide], the EC50 in assay [1] was under 1 µM; in assay [2], 1 to 10 µM; in assay [3] it was 1 to 10 µM; in assay [4], 1 to 10 µM; in assay [5], 1 to 10 µM.

`CC1c2ccc(C(=O)NCc3ccc(O)cc3)cc2N(Cc2c(F)cccc2Cl)C(=O)N1C` (stereo not drawn) [Example 235, 1-(2-chloro-6-fluorobenzyl)-N-(4-hydroxybenzyl)-3,4-dimethyl-2-oxo-1,2,3,4-tetrahydroquinazoline-7-carboxamide]: the EC50 in assay [1] is 1 to 10 µM; in assay [2], 1 to 10 µM; in assay [3] it was 1 to 10 µM; in assay [4] it was over 10 µM; in assay [5], over 10 µM.

For `Cc1cc(CN2C(=O)N(C)C(C)c3ccc(C(=O)NCc4c(F)cc(F)cc4F)cc32)c(F)cn1` (stereo not drawn) [Example 237, 1-((5-fluoro-2-methylpyridin-4-yl)methyl)-3,4-dimethyl-2-oxo-N-(2,4,6-trifluorobenzyl)-1,2,3,4-tetrahydroquinazoline-7-carboxamide], the EC50 is under 1 µM in assay [1]; under 1 µM in assay [2]; under 1 µM in assay [3]; 1 to 10 µM in assay [4]; 1 to 10 µM in assay [5].

Turning to `Cc1ccc(F)c(CN2C(=O)N(C)C(C)c3ccc(C(=O)NCc4c(F)cc(F)cc4F)cc32)n1` (stereo not drawn) [Example 238, 1-((3-fluoro-6-methylpyridin-2-yl)methyl)-3,4-dimethyl-2-oxo-N-(2,4,6-trifluorobenzyl)-1,2,3,4-tetrahydroquinazoline-7-carboxamide], the EC50 in assay [1] is under 1 µM; in assay [2] it was 1 to 10 µM; in assay [3] it was 1 to 10 µM; in assay [4], 1 to 10 µM; in assay [5], 1 to 10 µM.

For `C[C@H]1c2ccc(C(=O)NCc3c(F)cc(F)cc3F)cc2N(Cc2ccc(N=[N+]=[N-])cc2)C(=O)N1C` [Example 239, (S)-1-(4-azidobenzyl)-3,4-dimethyl-2-oxo-N-(2,4,6-trifluorobenzyl)-1,2,3,4-tetrahydroquinazoline-7-carboxamide], the EC50 is under 1 µM in assay [1]; 1 to 10 µM in assay [2]; 1 to 10 µM in assay [3]; 1 to 10 µM in assay [4]; 1 to 10 µM in assay [5].

As for `C[C@H]1c2ccc(C(=O)NCc3c(F)cc(F)cc3F)cc2N(Cc2ccc(N)cc2)C(=O)N1C` [Example 243, (S)-1-(4-aminobenzyl)-3,4-dimethyl-2-oxo-N-(2,4,6-trifluorobenzyl)-1,2,3,4-tetrahydroquinazoline-7-carboxamide], the EC50 is 1 to 10 µM in assay [1]; 1 to 10 µM in assay [2]; 1 to 10 µM in assay [3]; over 10 µM in assay [4]; over 10 µM in assay [5].

For `COc1cc(F)c(CNC(=O)c2ccc3c(c2)N(Cc2c(F)cccc2Cl)C(=O)N(C)[C@H]3C)c(F)c1` [Example 246, (S)-1-(2-chloro-6-fluorobenzyl)-N-(2,6-difluoro-4-methoxybenzyl)-3,4-dimethyl-2-oxo-1,2,3,4-tetrahydroquinazoline-7-carboxamide], the EC50 in assay [1], in assay [2], in assay [3], in assay [4] and in assay [5] was under 1 µM in each case.

Consider `C[C@H]1c2ccc(C(=O)NCc3c(F)cc(O)cc3F)cc2N(Cc2c(F)cccc2Cl)C(=O)N1C` [Example 252, (S)-1-(2-chloro-6-fluorobenzyl)-N-(2,6-difluoro-4-hydroxybenzyl)-3,4-dimethyl-2-oxo-1,2,3,4-tetrahydroquinazoline-7-carboxamide], for which the EC50 in assay [1] is under 1 µM; in assay [2], under 1 µM; in assay [3], under 1 µM; in assay [4] it was 1 to 10 µM; in assay [5], 1 to 10 µM.

As for `C[C@H]1c2ccc(C(=O)NCc3c(F)cc(F)cc3F)cc2N(Cc2c(F)cccc2NCCO)C(=O)N1C` [Example 264, (S)-1-(2-fluoro-6-((2-hydroxyethyl)amino)benzyl)-3,4-dimethyl-2-oxo-N-(2,4,6-trifluorobenzyl)-1,2,3,4-tetrahydroquinazoline-7-carboxamide hydrochloride], the EC50 is under 1 µM in assay [1]; under 1 µM in assay [2]; 1 to 10 µM in assay [3]; 1 to 10 µM in assay [4]; 1 to 10 µM in assay [5].

Consider `C[C@H]1c2ccc(C(=O)NCc3c(F)cc(F)cc3F)cc2N(Cc2c(N)ccc(F)c2F)C(=O)N1C` [Example 285, (S)-1-(6-amino-2,3-difluorobenzyl)-3,4-dimethyl-2-oxo-N-(2,4,6-trifluorobenzyl)-1,2,3,4-tetrahydroquinazoline-7-carboxamide], for which the EC50 in assay [1], in assay [2], in assay [3], in assay [4] and in assay [5] was under 1 µM throughout.

Consider `COc1cc(F)c(CN2C(=O)N(C)[C@@H](C)c3ccc(C(=O)NCc4c(F)cc(F)cc4F)cc32)c(Cl)c1` [Example 293, (S)-1-(2-chloro-6-fluoro-4-methoxybenzyl)-3,4-dimethyl-2-oxo-N-(2,4,6-trifluorobenzyl)-1,2,3,4-tetrahydroquinazoline-7-carboxamide], for which the EC50 in assay [1], in assay [2], in assay [3], in assay [4] and in assay [5] was under 1 µM in each case.
